{"source": "PubChem BioAssay AID256", "about": "(DTP/NCI, 2004)", "tested_on": "CD2F1 mice, L1210 leukemia ip, survival T/C", "assay": "NCI In Vivo Anticancer Drug Screen. Data for tumor model L1210 Leukemia (intraperitoneal) in CD2F1 (CDF1) mice", "settings": "endpoint: mean survival time, higher = longer survival", "how_it_was_run": "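Compound-dosed mice with transplantable tumor versus matched vehicle controls; endpoint ratio T/C reported.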", "note": "Several values for one entry are separate records, joined by “and”; a condition that tells them apart may be missing. Equal values may be shown once. Inconclusive results and toxic doses are left out.", "data": [{"smiles": "Nc1nc(=S)c2ncn(C3CC(O)C(CO)O3)c2[nH]1", "note": "(stereo unspecified)", "values": [{"measurement": "T/C", "setting": "dose: 1.25 mg/kg/injection, schedule: Q01DX005 (ip), vehicle: saline", "value": "150 % of control"}, {"measurement": "T/C", "setting": "dose: 2.5 mg/kg/injection, schedule: Q01DX001 (ip), vehicle: steriod suspending solution", "value": "123 % of control"}, {"measurement": "T/C", "setting": "dose: 4.0 mg/kg/injection, schedule: Q01DX009 (sc), vehicle: saline", "value": "108 % of control"}, {"measurement": "T/C", "setting": "dose: 5.0 mg/kg/injection, schedule: Q01DX005 (ip), vehicle: saline with Tween-80", "value": "154 % of control"}, {"measurement": "T/C", "setting": "dose: 5.0 mg/kg/injection, schedule: Q01DX005 (oral), vehicle: saline", "value": "160 % of control"}, {"measurement": "T/C", "setting": "dose: 5.0 mg/kg/injection, schedule: Q04DX003 (ip), vehicle: water", "value": "153 % of control"}, {"measurement": "T/C", "setting": "dose: 8.0 mg/kg/injection, schedule: Q01DX009 (ip), vehicle: saline", "value": "151 % of control"}, {"measurement": "T/C", "setting": "dose: 8.0 mg/kg/injection, schedule: Q01DX009 (sc), vehicle: saline", "value": "106 % of control"}, {"measurement": "T/C", "setting": "dose: 10.0 mg/kg/injection, schedule: Q01DX005 (ip), vehicle: saline with Tween-80", "value": "120 % of control"}, {"measurement": "T/C", "setting": "dose: 10.0 mg/kg/injection, schedule: Q01DX005 (ip), vehicle: saline", "value": "151 % of control"}, {"measurement": "T/C", "setting": "dose: 10.0 mg/kg/injection, schedule: Q01DX005 (oral), vehicle: saline", "value": "156 % of control"}, {"measurement": "T/C", "setting": "dose: 10.0 mg/kg/injection, schedule: Q04DX003 (ip), vehicle: suspension in saline", "value": "154 % of control"}, {"measurement": "T/C", "setting": "dose: 10.0 mg/kg/injection, schedule: Q04DX003 (iv), vehicle: suspension in saline", "value": "177 % of control"}, {"measurement": "T/C", "setting": "dose: 16.0 mg/kg/injection, schedule: Q01DX005 (ip), vehicle: saline", "value": "161 % of control"}, {"measurement": "T/C", "setting": "dose: 16.0 mg/kg/injection, schedule: Q01DX009 (ip), vehicle: saline", "value": "170 % of control"}, {"measurement": "T/C", "setting": "dose: 16.0 mg/kg/injection, schedule: Q01DX009 (ip), vehicle: water", "value": "108 % of control"}, {"measurement": "T/C", "setting": "dose: 16.0 mg/kg/injection, schedule: Q01DX009 (sc), vehicle: saline", "value": "151 % of control"}, {"measurement": "T/C", "setting": "dose: 20.0 mg/kg/injection, schedule: Q01DX001 (sc), vehicle: saline", "value": "121 % of control"}, {"measurement": "T/C", "setting": "dose: 20.0 mg/kg/injection, schedule: Q01DX005 (oral), vehicle: saline", "value": "151 % of control"}, {"measurement": "T/C", "setting": "dose: 20.0 mg/kg/injection, schedule: Q03HX008 (ip), vehicle: saline", "value": "152 % of control"}, {"measurement": "T/C", "setting": "dose: 20.0 mg/kg/injection, schedule: Q03HX024 (ip), vehicle: saline", "value": "150 % of control"}, {"measurement": "T/C", "setting": "dose: 20.0 mg/kg/injection, schedule: Q04DX003 (ip), vehicle: saline", "value": "157 % of control"}, {"measurement": "T/C", "setting": "dose: 20.0 mg/kg/injection, schedule: Q04DX003 (ip), vehicle: suspension in saline", "value": "159 % of control"}, {"measurement": "T/C", "setting": "dose: 20.0 mg/kg/injection, schedule: Q04DX003 (iv), vehicle: suspension in saline", "value": "159 % of control"}, {"measurement": "T/C", "setting": "dose: 24.0 mg/kg/injection, schedule: Q01DX009 (ip), vehicle: water", "value": "116 % of control and 103 % of control"}, {"measurement": "T/C", "setting": "dose: 24.0 mg/kg/injection, schedule: Q04DX003 (ip), vehicle: water", "value": "118 % of control"}, {"measurement": "T/C", "setting": "dose: 32.0 mg/kg/injection, schedule: Q01DX005 (ip), vehicle: saline", "value": "152 % of control"}, {"measurement": "T/C", "setting": "dose: 32.0 mg/kg/injection, schedule: Q01DX009 (ip), vehicle: saline", "value": "157 % of control"}, {"measurement": "T/C", "setting": "dose: 32.0 mg/kg/injection, schedule: Q01DX009 (sc), vehicle: saline", "value": "150 % of control"}, {"measurement": "T/C", "setting": "dose: 36.0 mg/kg/injection, schedule: Q01DX009 (ip), vehicle: water", "value": "103 % of control"}, {"measurement": "T/C", "setting": "dose: 36.0 mg/kg/injection, schedule: Q04DX003 (ip), vehicle: water", "value": "111 % of control"}, {"measurement": "T/C", "setting": "dose: 37.5 mg/kg/injection, schedule: Q04DX003 (ip), vehicle: clinical formulation", "value": "102 % of control"}, {"measurement": "T/C", "setting": "dose: 37.5 mg/kg/injection, schedule: Q04DX003 (ip), vehicle: saline", "value": "163 % of control"}, {"measurement": "T/C", "setting": "dose: 40.0 mg/kg/injection, schedule: Q03HX008 (ip), vehicle: saline", "value": "157 % of control"}, {"measurement": "T/C", "setting": "dose: 40.0 mg/kg/injection, schedule: Q03HX016 (ip), vehicle: saline", "value": "156 % of control"}, {"measurement": "T/C", "setting": "dose: 40.0 mg/kg/injection, schedule: Q03HX024 (ip), vehicle: saline", "value": "159 % of control"}, {"measurement": "T/C", "setting": "dose: 40.0 mg/kg/injection, schedule: Q04DX003 (ip), vehicle: saline", "value": "178 % of control"}, {"measurement": "T/C", "setting": "dose: 40.0 mg/kg/injection, schedule: Q04DX003 (ip), vehicle: suspension in saline", "value": "151 % of control"}, {"measurement": "T/C", "setting": "dose: 40.0 mg/kg/injection, schedule: Q04DX003 (iv), vehicle: suspension in saline", "value": "189 % of control"}, {"measurement": "T/C", "setting": "dose: 40.0 mg/kg/injection, schedule: Q08DX002 (ip), vehicle: saline", "value": "152 % of control"}, {"measurement": "T/C", "setting": "dose: 50.0 mg/kg/injection, schedule: Q01DX009 (ip), vehicle: water", "value": "107 % of control"}, {"measurement": "T/C", "setting": "dose: 50.0 mg/kg/injection, schedule: Q04DX003 (ip), vehicle: water", "value": "120 % of control and 103 % of control"}, {"measurement": "T/C", "setting": "dose: 64.0 mg/kg/injection, schedule: Q01DX009 (ip), vehicle: saline", "value": "123 % of control"}, {"measurement": "T/C", "setting": "dose: 75.0 mg/kg/injection, schedule: Q04DX003 (ip), vehicle: clinical formulation", "value": "111 % of control"}, {"measurement": "T/C", "setting": "dose: 75.0 mg/kg/injection, schedule: Q04DX003 (ip), vehicle: saline", "value": "154 % of control"}, {"measurement": "T/C", "setting": "dose: 76.0 mg/kg/injection, schedule: Q01DX009 (ip), vehicle: water", "value": "115 % of control"}, {"measurement": "T/C", "setting": "dose: 76.0 mg/kg/injection, schedule: Q04DX003 (ip), vehicle: water", "value": "122 % of control and 103 % of control"}, {"measurement": "T/C", "setting": "dose: 80.0 mg/kg/injection, schedule: Q01DX001 (ip), vehicle: saline", "value": "154 % of control"}, {"measurement": "T/C", "setting": "dose: 80.0 mg/kg/injection, schedule: Q03HX008 (ip), vehicle: saline", "value": "161 % of control"}, {"measurement": "T/C", "setting": "dose: 80.0 mg/kg/injection, schedule: Q03HX016 (ip), vehicle: saline", "value": "168 % of control"}, {"measurement": "T/C", "setting": "dose: 80.0 mg/kg/injection, schedule: Q03HX024 (ip), vehicle: saline", "value": "161 % of control"}, {"measurement": "T/C", "setting": "dose: 80.0 mg/kg/injection, schedule: Q04DX003 (ip), vehicle: saline", "value": "174 % of control"}, {"measurement": "T/C", "setting": "dose: 80.0 mg/kg/injection, schedule: Q04DX003 (ip), vehicle: suspension in saline", "value": "154 % of control"}, {"measurement": "T/C", "setting": "dose: 80.0 mg/kg/injection, schedule: Q04DX003 (iv), vehicle: suspension in saline", "value": "162 % of control"}, {"measurement": "T/C", "setting": "dose: 80.0 mg/kg/injection, schedule: Q08DX002 (ip), vehicle: saline", "value": "154 % of control"}, {"measurement": "T/C", "setting": "dose: 96.0 mg/kg/injection, schedule: Q01DX009 (oral), vehicle: saline", "value": "115 % of control"}, {"measurement": "T/C", "setting": "dose: 116.0 mg/kg/injection, schedule: Q01DX005 (ip), vehicle: water", "value": "117 % of control"}, {"measurement": "T/C", "setting": "dose: 116.0 mg/kg/injection, schedule: Q01DX009 (ip), vehicle: water", "value": "150 % of control"}, {"measurement": "T/C", "setting": "dose: 116.0 mg/kg/injection, schedule: Q04DX003 (ip), vehicle: water", "value": "106 % of control"}, {"measurement": "T/C", "setting": "dose: 150.0 mg/kg/injection, schedule: Q04DX003 (ip), vehicle: saline", "value": "152 % of control"}, {"measurement": "T/C", "setting": "dose: 160.0 mg/kg/injection, schedule: Q03HX008 (ip), vehicle: saline", "value": "160 % of control"}, {"measurement": "T/C", "setting": "dose: 160.0 mg/kg/injection, schedule: Q03HX016 (ip), vehicle: saline", "value": "174 % of control"}, {"measurement": "T/C", "setting": "dose: 160.0 mg/kg/injection, schedule: Q03HX024 (ip), vehicle: saline", "value": "155 % of control"}, {"measurement": "T/C", "setting": "dose: 160.0 mg/kg/injection, schedule: Q04DX003 (ip), vehicle: saline", "value": "162 % of control"}, {"measurement": "T/C", "setting": "dose: 160.0 mg/kg/injection, schedule: Q08DX002 (ip), vehicle: saline", "value": "158 % of control and 152 % of control"}, {"measurement": "T/C", "setting": "dose: 176.0 mg/kg/injection, schedule: Q01DX005 (ip), vehicle: water", "value": "105 % of control"}, {"measurement": "T/C", "setting": "dose: 176.0 mg/kg/injection, schedule: Q04DX003 (ip), vehicle: water", "value": "121 % of control"}, {"measurement": "T/C", "setting": "dose: 192.0 mg/kg/injection, schedule: Q01DX009 (oral), vehicle: saline", "value": "106 % of control"}, {"measurement": "T/C", "setting": "dose: 240.0 mg/kg/injection, schedule: Q01DX001 (oral), vehicle: saline", "value": "152 % of control"}, {"measurement": "T/C", "setting": "dose: 266.0 mg/kg/injection, schedule: Q01DX005 (ip), vehicle: water", "value": "88 % of control"}, {"measurement": "T/C", "setting": "dose: 266.0 mg/kg/injection, schedule: Q04DX003 (ip), vehicle: water", "value": "115 % of control"}, {"measurement": "T/C", "setting": "dose: 300.0 mg/kg/injection, schedule: Q04DX003 (ip), vehicle: saline", "value": "101 % of control"}, {"measurement": "T/C", "setting": "dose: 320.0 mg/kg/injection, schedule: Q01DX001 (oral), vehicle: saline", "value": "152 % of control"}, {"measurement": "T/C", "setting": "dose: 320.0 mg/kg/injection, schedule: Q03HX008 (ip), vehicle: saline", "value": "162 % of control"}, {"measurement": "T/C", "setting": "dose: 320.0 mg/kg/injection, schedule: Q03HX016 (ip), vehicle: saline", "value": "158 % of control"}, {"measurement": "T/C", "setting": "dose: 320.0 mg/kg/injection, schedule: Q04DX003 (ip), vehicle: suspension in saline", "value": "108 % of control"}]}]}
